Reference: patent US20240174618A1, “SUBSTITUTED (2-HETEROARYLOXYPHENYL)SULFONATES, SALTS THEREOF AND THEIR USE AS HERBICIDAL AGENTS” (Bayer Aktiengesellschaft, priority 2021, published 2024)

Experiments:
Format in all cases: in vivo
[1] = tested on: Abutilon theophrasti (ABUTH); experiment: A. Herbicidal pre-emergence efficacy, ABUTH; conditions: 1280 g/ha; scored visually after about 3 weeks vs untreated controls
From the text: (§1) Seeds of mono- and dicotyledonous weed plants were placed in plastic pots in sandy loam soil (doubly sown with one species each of mono- or dicotyledonous weed plants per pot) and covered with soil. The compounds of the invention, formulated in the form of wettable powders (WP) or as emulsion concentrates (EC), were then applied onto the surface of the covering soil as aqueous suspension or emulsion with addition of 0.5% additive at a water application rate of 600 liters per hectare (converted). After the treatment, the pots were placed in a greenhouse and kept under good growth conditions for the test plants. After about 3 weeks, the efficacy of the preparations was scored visually in comparison with untreated controls as percentages.
(§2) For example, • 100% efficacy=plants have died, • 0% efficacy=like untreated control plants.
(§3) Tables A1a to A12c below show the effects of selected compounds of the general formula (I) according to table 1 on various harmful plants at an application rate corresponding to 1280 g/ha or less, which were obtained by the experimental procedure mentioned above.

[2] = tested on: Digitaria sanguinalis (DIGSA); experiment: A. Herbicidal pre-emergence efficacy, DIGSA; conditions: scored visually after about 3 weeks vs untreated controls
From the text: as §1, §2, §3

Kochia scoparia (KCHSC) [3] = experiment: A. Herbicidal pre-emergence efficacy, KCHSC; conditions: pre-emergence, dosage 1280 g/ha
From the text: as §1, §2, §3

Lolium rigidum (LOLRI) = experiment: A. Herbicidal pre-emergence efficacy, LOLRI; conditions: dosage 1280 g/ha
From the text: as §1, §2, §3

Poa annua (POAAN) [4] = experiment: A. Herbicidal pre-emergence efficacy, POAAN; conditions: dosage 1280 g/ha
From the text: as §1, §2, §3

Setaria viridis (SETVI) = experiment: A. Herbicidal pre-emergence efficacy, SETVI
From the text: as §1, §2, §3

Stellaria media (STEME) [5] = experiment: A. Herbicidal pre-emergence efficacy, STEME
From the text: as §1, §2, §3

Veronica persica (VERPE) [6] = experiment: A. Herbicidal pre-emergence efficacy, VERPE
From the text: as §1, §2, §3

[7] = tested on: Amaranthus retroflexus (AMARE); experiment: A. Herbicidal pre-emergence efficacy, AMARE
From the text: as §1, §2, §3

[8] = tested on: Abutilon theophrasti (ABUTH); experiment: B. Herbicidal post-emergence efficacy, ABUTH; conditions: rated visually after about 3 weeks
Experimental: (§4) Seeds of mono- and dicotyledonous weed plants were placed in plastic pots in sandy loam soil (doubly sown with in each case one species of mono- or dicotyledonous weed plants per pot), covered with soil and cultivated in a greenhouse under controlled growth conditions. 2 to 3 weeks after sowing, the test plants were treated at the one-leaf stage. The compounds of the invention, formulated in the form of wettable powders (WP) or as emulsion concentrates (EC), were applied onto the green parts of the plants as aqueous suspension or emulsion with addition of 0.5% additive at a water application rate of 600 liters per hectare (converted). After the test plants had been kept in the greenhouse under optimum growth conditions for about 3 weeks, the activity of the preparations was rated visually in comparison to untreated controls.
(§5) For example, • 100% efficacy=plants have died, • 0% efficacy=like untreated control plants
(§6) Tables B1a to B12c below show the effects of selected inventive compounds of the general formula (I) according to table 1 on various harmful plants at an application rate corresponding to 1280 g/ha or less, which were obtained by the experimental procedure mentioned above.

[9] = tested on: Echinochloa crus-galli (ECHCG); experiment: B. Herbicidal post-emergence efficacy, ECHCG; conditions: 1280 g/ha, rated visually after about 3 weeks
Experimental: as §4, §5, §6

Kochia scoparia (KCHSC) [10] = experiment: B. Herbicidal post-emergence efficacy, KCHSC; conditions: for Post-emergence efficacy against KCHSC in %: rated visually after about 3 weeks; for Post-emergence efficacy against KCHSC: 1280 g/ha
Experimental: as §4, §5, §6

Poa annua (POAAN) [11] = experiment: B. Herbicidal post-emergence efficacy, POAAN; conditions: 1280 g/ha
Experimental: as §4, §5, §6

Stellaria media (STEME) [12] = experiment: B. Herbicidal post-emergence efficacy, STEME
Experimental: as §4, §5, §6

Veronica persica (VERPE) [13] = experiment: B. Herbicidal post-emergence efficacy, VERPE
Experimental: as §4, §5, §6

[14] = tested on: Amaranthus retroflexus (AMARE); experiment: B. Herbicidal post-emergence efficacy, AMARE
Experimental: as §4, §5, §6

[15] = tested on: Echinochloa crus-galli (ECHCG); experiment: A. Herbicidal pre-emergence efficacy, ECHCG; conditions: 1280 g/ha; scored visually after about 3 weeks vs untreated controls
From the text: as §1, §2, §3

[16] = tested on: Matricaria inodora (MATIN); experiment: A. Herbicidal pre-emergence efficacy, MATIN
From the text: as §1, §2, §3

O=S(=O)(CCC(F)=C(F)F)Oc1c(Br)cccc1Oc1ncc(Cl)cn1 [Example I-72]
Pre-emergence efficacy against ABUTH [1]: 90%
Pre-emergence efficacy against DIGSA ([2]; 320 g/ha): 90%
Pre-emergence efficacy against DIGSA ([2]; 1280 g/ha): 100%
Pre-emergence efficacy against KCHSC (Kochia scoparia (KCHSC) [3]): 90%
Pre-emergence efficacy against LOLRI (Lolium rigidum (LOLRI)): 90%
Pre-emergence efficacy against POAAN (Poa annua (POAAN) [4]): 100%
Pre-emergence efficacy against SETVI (Setaria viridis (SETVI); dosage 320 g/ha): 90%
Pre-emergence efficacy against SETVI (Setaria viridis (SETVI); dosage 1280 g/ha): 100%
Pre-emergence efficacy against STEME (Stellaria media (STEME) [5]; dosage 320 g/ha): 90%
Pre-emergence efficacy against STEME (Stellaria media (STEME) [5]; dosage 1280 g/ha): 100%
Pre-emergence efficacy against VERPE in % (Veronica persica (VERPE) [6]; 320 g/ha): 90%
Pre-emergence efficacy against VERPE in % (Veronica persica (VERPE) [6]; 1280 g/ha): 90%
Pre-emergence efficacy against AMARE in % ([7]; 320 g/ha): 90%
Pre-emergence efficacy against AMARE in % ([7]; 1280 g/ha): 100%
Post-emergence efficacy against ABUTH in % ([8]; 320 g/ha): 90%
Post-emergence efficacy against ABUTH in % ([8]; 1280 g/ha): 100%
Post-emergence efficacy against ECHCG in % [9]: 100%
Post-emergence efficacy against KCHSC in % (Kochia scoparia (KCHSC) [10]; 80 g/ha): 90%
Post-emergence efficacy against KCHSC in % (Kochia scoparia (KCHSC) [10]; 320 g/ha): 100%
Post-emergence efficacy against KCHSC (Kochia scoparia (KCHSC) [10]): 100%
Post-emergence efficacy against POAAN (Poa annua (POAAN) [11]): 90%
Post-emergence efficacy against STEME (Stellaria media (STEME) [12]; 80 g/ha): 90%
Post-emergence efficacy against STEME (Stellaria media (STEME) [12]; 320 g/ha): 100%
Post-emergence efficacy against STEME (Stellaria media (STEME) [12]; 1280 g/ha): 100%
Post-emergence efficacy against VERPE (Veronica persica (VERPE) [13]; 80 g/ha): 100%
Post-emergence efficacy against VERPE (Veronica persica (VERPE) [13]; 320 g/ha): 100%
Post-emergence efficacy against VERPE (Veronica persica (VERPE) [13]; 1280 g/ha): 100%
Post-emergence efficacy against AMARE ([14]; 80 g/ha): 100%
Post-emergence efficacy against AMARE ([14]; 320 g/ha): 100%
Post-emergence efficacy against AMARE ([14]; 1280 g/ha): 100%

O=S(=O)(CCC1CC1(Cl)Cl)Oc1c(F)cccc1Oc1ncc(Cl)cn1 (stereo not shown) [Example I-51]
Pre-emergence efficacy against DIGSA ([2]; 320 g/ha): 90%
Pre-emergence efficacy against DIGSA ([2]; 1280 g/ha): 100%
Pre-emergence efficacy against ECHCG [15]: 90%
Pre-emergence efficacy against KCHSC (Kochia scoparia (KCHSC) [3]): 100%
Pre-emergence efficacy against LOLRI (Lolium rigidum (LOLRI)): 90%
Pre-emergence efficacy against MATIN ([16]; 320 g/ha, scored visually after about 3 weeks vs untreated controls): 90%
Pre-emergence efficacy against MATIN ([16]; pre-emergence, dosage 1280 g/ha): 90%
Pre-emergence efficacy against POAAN (Poa annua (POAAN) [4]): 100%
Pre-emergence efficacy against SETVI (Setaria viridis (SETVI); dosage 320 g/ha): 90%
Pre-emergence efficacy against SETVI (Setaria viridis (SETVI); dosage 1280 g/ha): 90%
Pre-emergence efficacy against STEME (Stellaria media (STEME) [5]; dosage 320 g/ha): 90%
Pre-emergence efficacy against STEME (Stellaria media (STEME) [5]; dosage 1280 g/ha): 100%
Pre-emergence efficacy against VERPE in % (Veronica persica (VERPE) [6]; 1280 g/ha): 100%
Pre-emergence efficacy against AMARE in % ([7]; 80 g/ha): 90%
Pre-emergence efficacy against AMARE in % ([7]; 320 g/ha): 100%
Pre-emergence efficacy against AMARE in % ([7]; 1280 g/ha): 100%
Post-emergence efficacy against ABUTH in % ([8]; 320 g/ha): 90%
Post-emergence efficacy against ABUTH in % ([8]; 1280 g/ha): 90%
Post-emergence efficacy against ECHCG in % [9]: 90%
Post-emergence efficacy against KCHSC (Kochia scoparia (KCHSC) [10]): 90%
Post-emergence efficacy against POAAN (Poa annua (POAAN) [11]): 90%
Post-emergence efficacy against STEME (Stellaria media (STEME) [12]; 80 g/ha): 90%
Post-emergence efficacy against STEME (Stellaria media (STEME) [12]; 320 g/ha): 90%
Post-emergence efficacy against STEME (Stellaria media (STEME) [12]; 1280 g/ha): 90%
Post-emergence efficacy against VERPE (Veronica persica (VERPE) [13]; 1280 g/ha): 90%
Post-emergence efficacy against AMARE ([14]; 80 g/ha): 90%
Post-emergence efficacy against AMARE ([14]; 320 g/ha): 90%
Post-emergence efficacy against AMARE ([14]; 1280 g/ha): 90%
